The record followed here is PubChem BioAssay (NCI).

Test systems include COLO 205 colon; SR leukemia; MALME-3M melanoma; SW-620 colon; OVCAR-4 ovarian; CAKI-1 renal; HL-60(TB) leukemia; SN12C renal; UO-31 renal; TK-10 renal.
Holding throughout (experiment): NCI anticancer screen, dose series, 48 h

“And” between values parts separate entries of the source, which are not always exact repeats. Equal entries are not always repeated.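 Values below derive from 48-hour exposures of cells grown in 96-well plates, with endpoints linearly interpolated between the two concentrations bracketing the appropriate inhibition level. The concentration for 50% growth inhibition is given as GI50. TGI marks complete inhibition of growth.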

For the compound `O=C(Nc1ccc(Cl)c(Cl)c1)Nc1ccc(Cl)c(Cl)c1`, the GI50 was 1.77 µM and 2.07 µM in the test on COLO 205 colon; 2.7 µM and 2.26 µM with SR leukemia; 2.22 µM and 2.44 µM in the test on MALME-3M melanoma; 3.36 µM and 3.12 µM in the test with SW-620 colon; 2.98 µM and 3.57 µM in the test with OVCAR-4 ovarian; 2.6 µM and 1.94 µM with CAKI-1 renal. The GI50 was 2.58 µM and 2.16 µM in the test with HL-60(TB) leukemia; 3.1 µM and 2.83 µM with SN12C renal; 2.25 µM and 2.74 µM with UO-31 renal; 3.3 µM and 2.59 µM in the test with TK-10 renal. Further, the TGI in the test on COLO 205 colon was 3.3 µM and 3.69 µM; with SR leukemia, 10.9 µM and 6.66 µM; in the test with MALME-3M melanoma, 5.95 µM and 6.58 µM; with SW-620 colon, 14.4 µM and 11.7 µM; with OVCAR-4 ovarian, 14.6 µM and 47.7 µM; in the test with CAKI-1 renal, 9.96 µM and 4.59 µM. Moreover, the TGI in the test with HL-60(TB) leukemia was 7.24 µM and 6.68 µM; in the test with SN12C renal, 11.8 µM and 10.7 µM; with UO-31 renal it was 7.78 µM and 8.91 µM; in the test with TK-10 renal, 13.3 µM and 5.86 µM.
Regarding `O=C(Nc1ccccc1OC(F)(F)F)Nc1n[nH]c2ccccc12`, the GI50 in the test with COLO 205 colon is 71.8 µM; in the test on SR leukemia, 0.0489 µM; with MALME-3M melanoma, 76.8 µM; with SW-620 colon it was 36.8 µM; with OVCAR-4 ovarian it was 37.7 µM; with CAKI-1 renal it was 31 µM. The GI50 was 17.9 µM with HL-60(TB) leukemia, 72.5 µM in the test on SN12C renal, 17.4 µM in the test with UO-31 renal and 37.9 µM in the test with TK-10 renal. Moreover, the TGI with COLO 205 colon is greater than 100 µM; in the test with SR leukemia it was 24 µM; with MALME-3M melanoma, greater than 100 µM; in the test on SW-620 colon it was greater than 100 µM; with OVCAR-4 ovarian, greater than 100 µM; in the test with CAKI-1 renal, greater than 100 µM. The TGI with HL-60(TB) leukemia, with SN12C renal, in the test with UO-31 renal and in the test on TK-10 renal was greater than 100 µM each time.
Consider `COC(=O)[C@@H]1[C@H](O)[C@H](C)[C@H](O)[C@@](C)(O)/C=C\C=C(C)C(=O)Nc2c(C)c(OC(C)=O)c3c(c2O)C(=O)C(C)=C2OCOC(=C23)C(C)=C[C@@](C)(O)[C@H](O)[C@@H](C)[C@H]1OC(C)=O`, for which the TGI in the test with COLO 205 colon was > 100 µM and 29 µM and 37.3 µM; in the test with SR leukemia, > 100 µM and 63.8 µM and 89 µM; in the test on MALME-3M melanoma, > 100 µM and 66.9 µM and 88.6 µM; in the test with SW-620 colon, > 100 µM and 21 µM; with OVCAR-4 ovarian, > 100 µM and 66.9 µM; in the test with CAKI-1 renal, greater than 100 µM. Further, the TGI was > 100 µM and 64.6 µM and 39.9 µM in the test on HL-60(TB) leukemia; > 100 µM and 66.9 µM with SN12C renal; > 100 µM and 66.9 µM with UO-31 renal; greater than 100 µM with TK-10 renal. The GI50 in the test on SR leukemia was 58 µM and 24.3 µM and 28.4 µM; in the test on OVCAR-4 ovarian, 63.2 µM; with CAKI-1 renal it was greater than 66.9 µM; with HL-60(TB) leukemia it was 11.5 µM; in the test on SN12C renal it was 49.8 µM.
With `N#CC(c1ccc(Cl)cc1)c1cccc(C(C#N)c2ccc(Cl)cc2)n1` (stereo unspecified), the TGI was 43 µM with COLO 205 colon; greater than 100 µM with SR leukemia; greater than 100 µM in the test with MALME-3M melanoma; greater than 100 µM with SW-620 colon; greater than 100 µM with OVCAR-4 ovarian; greater than 100 µM with CAKI-1 renal. In addition, the TGI was greater than 100 µM in the test on HL-60(TB) leukemia, greater than 100 µM in the test on SN12C renal, 42.3 µM in the test with UO-31 renal and 69.9 µM in the test with TK-10 renal.
For `O=C1C(=O)N(c2ccc(Cl)cc2Cl)C(=O)C(=O)C1c1nc2ccccc2s1`, the TGI in the test on COLO 205 colon was greater than 100 µM; in the test on SR leukemia it was 79.2 µM; with MALME-3M melanoma, greater than 100 µM; with SW-620 colon, greater than 100 µM; in the test on OVCAR-4 ovarian, greater than 100 µM; in the test on CAKI-1 renal it was greater than 100 µM. Also, the TGI in the test with HL-60(TB) leukemia was 67.1 µM; with SN12C renal it was greater than 100 µM; in the test with UO-31 renal, greater than 100 µM; with TK-10 renal it was greater than 100 µM.
Take `COc1ccc2c(C3=C(c4cn(C)c5ccccc45)C(=O)NC3=O)cn(C)c2c1`: the GI50 was 0.0917 µM with COLO 205 colon; 0.0717 µM in the test on SR leukemia; greater than 25 µM in the test with MALME-3M melanoma; 0.104 µM with SW-620 colon; 0.258 µM with OVCAR-4 ovarian; 0.0941 µM with CAKI-1 renal. Moreover, the GI50 was 0.0998 µM with HL-60(TB) leukemia, 0.221 µM in the test on SN12C renal, 3.69 µM with UO-31 renal and greater than 25 µM in the test on TK-10 renal. The TGI is 0.323 µM in the test with COLO 205 colon; greater than 25 µM in the test with SR leukemia; greater than 25 µM in the test on MALME-3M melanoma; greater than 25 µM with SW-620 colon; greater than 25 µM in the test on OVCAR-4 ovarian; greater than 25 µM with CAKI-1 renal. Also, the TGI in the test with SN12C renal, in the test on UO-31 renal and in the test on TK-10 renal was greater than 25 µM throughout.
`COc1ccc2c(c1)/C(=C/c1c(C)nc3sc(C)nn13)C(=O)N2`: the GI50 is 0.614 µM in the test on COLO 205 colon; 0.31 µM in the test with SR leukemia; 0.695 µM in the test on SW-620 colon; 14.7 µM in the test on OVCAR-4 ovarian; 2.31 µM with CAKI-1 renal; 0.663 µM with HL-60(TB) leukemia. Besides, the figures for the GI50 in the test on SN12C renal, with UO-31 renal and in the test with TK-10 renal were 7.2 µM, 5.23 µM and 7.43 µM, respectively. Moreover, the TGI in the test on COLO 205 colon was 4.96 µM; with MALME-3M melanoma, greater than 100 µM; in the test with SW-620 colon it was greater than 100 µM; in the test on OVCAR-4 ovarian, greater than 100 µM; in the test with CAKI-1 renal it was greater than 100 µM; in the test with SN12C renal, greater than 100 µM. Also, the TGI in the test on UO-31 renal and in the test with TK-10 renal was greater than 100 µM in each case.
Take `COC(=O)CC1CCN(C#N)CC1CC[N+](=O)[O-]` (stereo unspecified): the TGI in the test with COLO 205 colon, in the test with SR leukemia, in the test on MALME-3M melanoma, in the test on SW-620 colon, in the test with OVCAR-4 ovarian and in the test on CAKI-1 renal was greater than 100 µM each time. Further, the TGI in the test on HL-60(TB) leukemia, in the test with SN12C renal, with UO-31 renal and in the test on TK-10 renal was greater than 100 µM in each case.
Turning to `CCC(CO)Nc1nc2ccc(Cl)cc2c2ccccc12` (stereo unspecified), the GI50 in the test with COLO 205 colon is 11.9 µM; in the test on SR leukemia, 1.57 µM; in the test with MALME-3M melanoma, 15.7 µM; in the test with SW-620 colon, 13.5 µM; in the test on OVCAR-4 ovarian, 11.9 µM; in the test on CAKI-1 renal, 2.82 µM. The GI50 is 7.62 µM with HL-60(TB) leukemia, 11.5 µM with SN12C renal, 4.01 µM with UO-31 renal and 3.91 µM in the test on TK-10 renal. Also, the TGI in the test with COLO 205 colon is 25.6 µM; with SR leukemia, 13.5 µM; in the test with MALME-3M melanoma it was 29.3 µM; in the test with SW-620 colon, 26.9 µM; in the test on OVCAR-4 ovarian, 25.5 µM; in the test on CAKI-1 renal, 14.6 µM. Further, the TGI in the test with HL-60(TB) leukemia was 63.3 µM; in the test on SN12C renal, 25.3 µM; in the test with UO-31 renal, 16.3 µM; with TK-10 renal, 18 µM.
